Test: xn = mol fraction of the nth substance listed
Conditions: 101 kPa, Liquid; for viscosity: Capillary tube (Ostwald / Ubbelohde) method; for mass density: Pycnometric method

CC(O)C(=O)[O-].CN(C)C(N)=[N+](C)C [1,1,3,3-tetramethylguanidinium lactate] + O
Conditions | mass density [kg/m3] | viscosity [mPa·s]
303.15 K, x2 = 0 | 1123.5 | 13684
303.15 K, x2 = 0.1001 | 1124 | 7665.3
303.15 K, x2 = 0.2165 | 1124.3 | 3594.1
303.15 K, x2 = 0.3182 | 1124.7 | 1926
303.15 K, x2 = 0.409 | 1124.9 | 1128.2
303.15 K, x2 = 0.5036 | 1124.5 | 554.56
303.15 K, x2 = 0.6044 | 1122.8 | 253.27
303.15 K, x2 = 0.7034 | 1119.9 | 104.72
303.15 K, x2 = 0.8113 | 1111.2 | 32.59
303.15 K, x2 = 0.9017 | 1088.3 | 8.68
303.15 K, x2 = 0.95 | 1058.1 | 3.32
308.15 K, x2 = 0 | 1120.9 | 7295.9
308.15 K, x2 = 0.1001 | 1121.2 | 4186.3
308.15 K, x2 = 0.2165 | 1121.5 | 2150.1
308.15 K, x2 = 0.3182 | 1121.9 | 1141.9
308.15 K, x2 = 0.409 | 1122.1 | 698
308.15 K, x2 = 0.5036 | 1121.3 | 352.18
308.15 K, x2 = 0.6044 | 1119.7 | 175.49
308.15 K, x2 = 0.7034 | 1116.7 | 74.98
308.15 K, x2 = 0.8113 | 1107.9 | 25.05
308.15 K, x2 = 0.9017 | 1084.9 | 7.1
308.15 K, x2 = 0.95 | 1055 | 2.83
313.15 K, x2 = 0 | 1117.6 | 3961.9
313.15 K, x2 = 0.1001 | 1117.9 | 2412.1
313.15 K, x2 = 0.2165 | 1118.1 | 1263.3
313.15 K, x2 = 0.3182 | 1118.4 | 718.88
313.15 K, x2 = 0.409 | 1118.5 | 429.45
313.15 K, x2 = 0.5036 | 1117.6 | 235.35
313.15 K, x2 = 0.6044 | 1116.1 | 122.11
313.15 K, x2 = 0.7034 | 1113.1 | 55.39
313.15 K, x2 = 0.8113 | 1104.2 | 19.16
313.15 K, x2 = 0.9017 | 1081.5 | 5.87
313.15 K, x2 = 0.95 | 1051.5 | 2.41
318.15 K, x2 = 0 | 1114.3 | 2264.3
318.15 K, x2 = 0.1001 | 1114.5 | 1261.7
318.15 K, x2 = 0.2165 | 1114.6 | 797.81
318.15 K, x2 = 0.3182 | 1114.9 | 458.45
318.15 K, x2 = 0.409 | 1114.9 | 289.6
318.15 K, x2 = 0.5036 | 1114.1 | 167.33
318.15 K, x2 = 0.6044 | 1112.6 | 89.04
318.15 K, x2 = 0.7034 | 1109.6 | 42
318.15 K, x2 = 0.8113 | 1100.6 | 15.25
318.15 K, x2 = 0.9017 | 1078.1 | 4.94
318.15 K, x2 = 0.95 | 1048.4 | 2.1
323.15 K, x2 = 0 | 1111.6 | 1365.5
323.15 K, x2 = 0.1001 | 1111.7 | 890.99
323.15 K, x2 = 0.2165 | 1111.7 | 502.11
323.15 K, x2 = 0.3182 | 1112 | 310.53
323.15 K, x2 = 0.409 | 1111.8 | 201.98
323.15 K, x2 = 0.5036 | 1111.1 | 120.29
323.15 K, x2 = 0.6044 | 1109.2 | 64.59
323.15 K, x2 = 0.7034 | 1106.7 | 32.53
323.15 K, x2 = 0.8113 | 1097.1 | 12.34
323.15 K, x2 = 0.9017 | 1074.5 | 4.2
323.15 K, x2 = 0.95 | 1045.6 | 1.86
328.15 K, x2 = 0 | 1108.1 | 867.05
328.15 K, x2 = 0.1001 | 1108.1 | 579.99
328.15 K, x2 = 0.2165 | 1108.2 | 341
328.15 K, x2 = 0.3182 | 1108.4 | 218.6
328.15 K, x2 = 0.409 | 1108.2 | 146.62
328.15 K, x2 = 0.5036 | 1107.4 | 88.71
328.15 K, x2 = 0.6044 | 1105.6 | 49.38
328.15 K, x2 = 0.7034 | 1102.9 | 25.68
328.15 K, x2 = 0.8113 | 1093.2 | 10.19
328.15 K, x2 = 0.9017 | 1070.6 | 3.62
328.15 K, x2 = 0.95 | 1042.5 | 1.65

— the NIST ThermoML archive (doi:10.1021/je3009073)
